Source: patent publication US12018157B2, “Tunable photoactivatable silicon rhodamine fluorophores” (SPIROCHROME AG, priority 2017, dated 2024)

Columns and labels:
Actin = test: Live-cell imaging, localisation of PA-SiR-Actin to its target; assay type: cell-based
Experimental: (§1) HeLa or U2OS cells were cultured in high-glucose DMEM media with GlutaMAX-1 (Life Technologies) supplemented with 10% FBS (Life Technologies) in a humidified 5% CO2 incubator at 37° C. Cells were split every 3-4 days or at confluency.
(§2) Cells were stained with 1-3 μM PA-SiR (1-2 h, 37° C.), washed with phenol-red free DMEM medium (Life Technologies) or PBS (once for 3 min, 37° C.) and imaged in the same medium.
(§3) Imaging was performed using a Leica DMI6000B microscope equipped with a Hamamatsu-C9100 EM-CCD camera and a HCX PL APO 100.0×1.47 Oil objective and a standard Cy5 filter set was used. Activation of the fluorophores was achieved by irradiation with the DAPI-channel at 100% for 10-20 s. The same settings (exposure time=150 ms, gain=3, EM-gain=800, transmission=12.5%) were used for the images taken before and after UV irradiation in the SiR-channel.
(§4) Confocal imaging was performed on a Leica DMi8 microscope equipped with a Leica TCS SP8 X scanhead, a white light laser, a 355 nm laser (Coherent) and HC PL APO 63×1.47 Oil objective. The 355 nm laser was used to perform the photoactivation.

Tubulin = test: Live-cell imaging, localisation of PA-SiR-Tubulin to its target; assay type: cell-based
Experimental: as §1, §2, §3, §4

[1] = test system: SNAP-tag in the nucleus of Hela cells; test: Live-cell imaging, localisation in Hela cells expressing SNAP-tag in the nucleus; assay type: cell-based
Experimental: (§5) Mammalian expression vectors with a SNAP-tag-NLS or SNAP-tag-Halo-tag-NLS fusion construct were available in the Johnsson lab. H2B-Halo was constructed from a pEBTet plasmid and the commercially available pCLIPf-H2B plasmid (NEB).
as §1
(§6) Cells were seeded on glass bottom 35 mm dishes (Mattek) one day before imaging. Transient transfection of cells was performed using Lipofectamine™ 2000 reagent (Life Technologies) according to the manufacturer's recommendations: DNA (2.5 μg) was mixed with OptiMEM I (100 μL, Life Technologies) and Lipofectamine™ 2000 (6 μL) was mixed with OptiMEM I (100 μL). The solutions were incubated for 5 min at room temperature. They were mixed and incubated for 20 min at room temperature. Prepared DNA-Lipofectamine complex was added to a glass bottom 35 mm dish with cells at 50-70% confluency. After 6 h incubation in a humidified 5% CO2 incubator at 37° C. the medium was changed to a fresh high-glucose DMEM medium with GlutaMAX-1 supplemented with 10% FBS. The cells were incubated for 1-2 days before imaging. […]

DNA = test: Live-cell imaging, localisation of PA-SiR-DNA to its target; assay type: cell-based
Experimental: as §1, §2, §3, §4

[2] = UV-Vis analysis / full absorbance spectra of PA-SiR 2a before and after UV irradiation; assay type: physicochemical; conditions: PBS
Experimental: PBS solutions of different pH were adjusted by addition of HCl or NaOH solution using a pH meter.
Solutions were prepared in PBS ([…] or 20 μM) at the indicated pH. UV irradiation was performed outside of the spectrometer for the indicated period (T). Absorbance spectra were recorded using a SHIMADZU UV spectrophotometer (UV-1800) and 1 cm fluorescence quartz cuvettes (Hellma Analytics). Spectra were recorded every minute.
Solutions of 2a in PBS (10 μM) at the desired pH were prepared in 1 cm fluorescence quartz cuvette (Hellma Analytics). UV irradiation was performed directly inside the spectrophotometer during the running experiment at a fixed distance (F, single flash). Kinetic absorbance measurements were recorded on a Perkin-Elmer Lambda 950 spectrophotometer at 646 nm.

[3] = test system: HaloTag in the nucleus of Hela cells; test: Live-cell imaging, localisation in Hela cells expressing HaloTag in the nucleus; assay type: cell-based
Experimental: as §5, §1, §6

HaloTag-H2B fusion = test: Live-cell imaging, U2OS cells expressing HaloTag-H2B fusion; assay type: cell-based; conditions: 1 μM, 1 h (FIG. 3)
Experimental: FIG. 3 U2OS cells expressing HaloTag-H2B fusion stained with PA-SiR-Halo for 1 h (1 μM) and washed once for 3 min. Images were taken before and after irradiation with the 355 nm laser on a confocal microscope. Scale bar 30 μm.
as §5, §1
as §6, with “confluency.” for “confluency. After 6 h incubation in a humidified 5% CO2 incubator at 37° C. the medium was changed to a fresh high-glucose DMEM medium with GlutaMAX-1 supplemented with 10% FBS. The cells were incubated for 1-2 days before imaging.”

C/C1=C\CC[C@H](C)OC(=O)C[C@H](c2ccc(O)cc2)NC(=O)[C@@H](Cc2cc3ccccc3[nH]2)N(C)C(=O)[C@H](CCCCNC(=O)CCC=C2c3ccc(N(C)C)cc3[Si](C)(C)c3cc(N(C)C)ccc32)NC(=O)[C@@H](C)C1 [PA-SiR-Actin, N-(4-((4R,7R,10S,13S,19S,E)-7-((1H-Indol-2-yl)methyl)-4-(4-hydroxyphenyl)-8,13,15,19-tetramethyl-2,6,9,12-tetraoxo-1-oxa-5,8,11-triazacyclononadec-15-en-10-yl)butyl)-4-(3,7-bis(dimethylamino)-5,5-dimethyldibenzo[b,e]silin-10(5H)-ylidene)butanamide]
localisation to target (actin) (Actin): localised to their targets

CC(=O)O[C@@]12CO[C@@H]1C[C@H](O)[C@@]1(C)C(=O)[C@H](O)C3=C(C)[C@@H](OC(=O)C(O)C(NC(=O)CCCCCCCNC(=O)CCC=C4c5ccc(N(C)C)cc5[Si](C)(C)c5cc(N(C)C)ccc54)c4ccccc4)C[C@@](O)([C@@H](OC(=O)c4ccccc4)[C@H]21)C3(C)C (stereo partly drawn) [PA-SiR-Tubulin, (2αR,4S,4αS,6R,9S,11S,12S,12αR,12βS)-12β-Acetoxy-9-((3-(8-(4-(3,7-bis(dimethylamino)-5,5-dimethyldibenzo[b,e]silin-10(5H)-ylidene)butanamido)octanamido)-2-hydroxy-3-phenylpropanoyl)oxy)-4,6,11-trihydroxy-4α,8,13,13-tetramethyl-5-oxo-2α,3,4,4α,5,6,9,10,11,12,12α,12β-dodecahydro-1H-7,11-methanocyclodeca[3,4]benzo[1,2-β]oxet-12-yl benzoate]
localisation to target (tubulin) (Tubulin): localised to their targets

CN(C)c1ccc2c(c1)[Si](C)(C)c1cc(N(C)C)ccc1C2=CCCC(=O)NCc1ccc(COc2nc(N)nc3[nH]cnc23)cc1 [PA-SiR-SNAP, N-(4-(((2-Amino-9H-purin-6-yl)oxy)methyl)benzyl)-4-(3,7-bis(dimethylamino)-5,5-dimethyldibenzo[b,e]silin-10(5H)-ylidene)butanamide]
localisation to SNAP-tag in the nucleus [1]: successfully localised

CN1CCN(c2ccc3nc(-c4ccc5nc(-c6ccc(OCCCCNC(=O)CCC=C7c8ccc(N(C)C)cc8[Si](C)(C)c8cc(N(C)C)ccc87)cc6)[nH]c5c4)[nH]c3c2)CC1 [PA-SiR-DNA, 4-(3,7-Bis(dimethylamino)-5,5-dimethyldibenzo[b,e]silin-10(5H)-ylidene)-N-(4-(4-(6-(4-methylpiperazin-1-yl)-1H,3′H-[2,5′-bibenzo[d]imidazol]-2′-yl)henoxy)butyl)butanamide]
localisation to target (DNA) (DNA): localised to their targets

CN(C)c1ccc2c(c1)[Si](C)(C)c1cc(N(C)C)ccc1C2=CCCC(=O)O [2a, 4-(3,7-Bis(dimethylamino)-5,5-dimethyldibenzo[b,e]silin-10(5H)-ylidene)butanoicacid]
absorbance (before photoactivation) [2]: only absorbance in the UV-range

CN(C)c1ccc2c(c1)[Si](C)(C)c1cc(N(C)C)ccc1C2=CCCC(=O)NCCOCCOCCCCCCCl [PA-SiR-Halo, 4-(3,7-Bis(dimethylamino)-5,5-dimethyldibenzo[b,e]silin-10(5H)-ylidene)-N-(2-(2-((6-chlorohexyl)oxy)ethoxy)ethyl)butanamide]
localisation to HaloTag in the nucleus [3]: successfully localised | localisation to H2B (HaloTag-H2B fusion): successfully localised
